According to patent US20110086834A1, “ALKYNYL ALCOHOLS AS KINASE INHIBITORS” (AMGEN INC., priority 2008, published 2011):
pKi: −log10 of the molar value.

The compounds below were run against T1, NIK (Homo sapiens, UniProt Q99558) (assay: homogenous time resolved fluorescence (HTRF) assay for NIK Ki measurement). Conditions: truncated NIK (catalytic domain only), autophosphorylation; 10 nM enzyme; 20, 100, 200 or 500 μM ATP; room temperature, 2 hours; read-out: Ki activity in the homogenous time resolved fluorescence (HTRF) assay for NIK.
T1 construct: Both assays utilize a truncated form of NIK containing only the catalytic domain; made in house; host or cells: baculovirus expression system (insect cells implied)
T1 sequence (Q99558 400-655 limits assumed): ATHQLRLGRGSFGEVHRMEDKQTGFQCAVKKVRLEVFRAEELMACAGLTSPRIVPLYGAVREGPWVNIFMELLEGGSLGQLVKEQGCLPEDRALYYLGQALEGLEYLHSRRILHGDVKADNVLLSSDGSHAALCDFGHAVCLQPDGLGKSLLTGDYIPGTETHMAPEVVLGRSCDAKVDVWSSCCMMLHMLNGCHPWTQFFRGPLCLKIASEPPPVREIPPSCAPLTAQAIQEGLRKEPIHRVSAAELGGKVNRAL
Assay type: biochemical

Question: With `CC(O)(C#Cc1cncc(C(=O)Nc2ccncn2)c1)c1nccs1` (stereo not drawn) [Example 168, 5-(3-Hydroxy-3-(thiazol-2-yl)but-1-ynyl)-N-(pyrimidin-4-yl)nicotinamide] as the compound, how does the pKi read?
Answer: 4.52 to 6.00

Question: `Cc1cc([C@](C)(O)C#Cc2ccc3c(c2)N(c2nc(N)ncc2Cl)CC32CCOCC2)on1` (single isomer, unassigned) [Example 31] was tested. Which pKi did it give?
Answer: > 6.00

Question: How did the pKi turn out when `Cn1c2c(c3cc(C#CC4(O)CCCC4)ccc31)-c1nc(N)ncc1CNC2=O` [Example 245, 2-Amino-1′-((1-hydroxycyclopentyl)ethynyl)-8-methyl-5,8-dihydropyrimido[4′,5′:5,6]azepino[3,4-b]indol-7(6H)-one] was run?
Answer: > 6.00

Question: `CC(O)(C#Cc1ccc(F)c(Nc2nc(N)ncc2Cl)c1)c1nccs1` (stereo not drawn) [Example 166, 4-(3-(2-Amino-5-chloropyrimidin-4-ylamino)-4-fluorophenyl)-2-(thiazol-2-yl)but-3-yn-2-ol] was tested. Which pKi did it give?
Answer: > 6.00

Question: With `Nc1ncc(Cl)c(-c2cn(CC3CCOC3)c3ccc(C#CC4(O)CCCC4)cc23)n1` (stereo not drawn) [Example 134, 1-(2-(3-(2-amino-5-chloropyrimidin-4-yl)-1-((tetrahydrofuran-3-yl)methyl)-1H-indol-5-yl)ethynyl)cyclopentanol] as the compound, how does the pKi read?
Answer: > 6.00

Question: How did the pKi turn out when `CC(O)(C#Cc1ccc2ncc(-c3nc(N)ncc3Cl)n2c1)c1ncco1` (stereo not drawn) [Example 309, 4-(3-(2-Amino-5-chloro-4-pyrimidinyl)imidazo[1,2-a]pyridin-6-yl)-2-(1,3-oxazol-2-yl)-3-Butyn-2-ol] was run?
Answer: > 6.00

Question: How did the pKi turn out when `CN1CC[C@](O)(C#Cc2ccc3c(c2)N(c2nc(N)ncc2Cl)CC3(C)C)C1=O` [Example 44, (3S)-3-((1-(2-amino-5-chloro-4-pyrimidinyl)-3,3-dimethyl-2,3-dihydro-1H-indol-6-yl)ethynyl)-3-hydroxy-1-methyl-2-pyrrolidinone] was run?
Answer: > 6.00

Question: With `Cc1cc(C(C)(O)C#Cc2ccc(CN3CCOCC3)c(Nc3nc(N)ncc3Cl)c2)no1` (stereo not drawn) [Example 158, 4-(3-(2-Amino-5-chloropyrimidin-4-ylamino)-4-(morpholinomethyl)phenyl)-2-(5-methylisoxazol-3-yl)but-3-yn-2-ol] as the compound, how does the pKi read?
Answer: > 6.00

Question: How did the pKi turn out when `COCCOc1cc(C#CC2(O)CCCC2)cc2c1ccn2-c1ccnc(N)n1` [Example 100, 1-(2-(1-(2-aminopyrimidin-4-yl)-4-(2-methoxyethoxy)-1H-indol-6-yl)ethynyl)cyclopentanol] was run?
Answer: > 6.00

Question: How did the pKi turn out when `CNC(=O)C(C)(O)C#Cc1ccc2c(c1)N(c1nc(N)ncc1Cl)CC2(C)C` (stereo not drawn) [Example 49, 4-(1-(2-amino-5-chloro-4-pyrimidinyl)-3,3-dimethyl-2,3-dihydro-1H-indol-6-yl)-2-hydroxy-N,2-dimethyl-3-butynamide] was run?
Answer: > 6.00

Question: With `CC(O)(C#Cc1ccc(OC2CCOCC2)c(Nc2nc(N)ncc2Cl)c1)c1nccs1` (stereo not drawn) [Example 152, 4-(3-(2-Amino-5-chloropyrimidin-4-ylamino)-4-(tetrahydro-2H-pyran-4-yloxy)phenyl)-2-(thiazol-2-yl)but-3-yn-2-ol] as the compound, how does the pKi read?
Answer: > 6.00

Question: With `CC(O)(C#Cc1ccc2c(c1)N(c1ccnc(N)n1)CC2)c1nccs1` (stereo not drawn) [Example 276, 4-(1-(2-Amino-4-pyrimidinyl)-2,3-dihydro-1H-indol-6-yl)-2-(1,3-thiazol-2-yl)-3-butyn-2-ol] as the compound, how does the pKi read?
Answer: > 6.00

Question: With `COCCN(C)C1CCn2c1c(-c1ccncn1)c1cc(C#CC(C)(O)c3nccs3)ccc12` (stereo not drawn) [Example 105, 4-(1-((2-methoxyethyl)(methyl)amino)-9-(pyrimidin-4-yl)-2,3-dihydro-1H-pyrrolo[1,2-a]indol-7-yl)-2-(thiazol-2-yl)but-3-yn-2-ol] as the compound, how does the pKi read?
Answer: > 6.00

Question: `C[C@@](O)(C#Cc1ccc2c(c1)N(c1nc(N)ncc1Cl)CC2(CO)CO)c1nccs1` (single isomer, unassigned) [Example 61] was tested. Which pKi did it give?
Answer: > 6.00

Question: With `CNc1ncc2c(n1)-c1c(nc3ccc(C#CC(C)(C)O)cn13)CCC2` [Example 252, 2-methyl-4-(2-(methylamino)-6,7-dihydro-5H-pyrido[1″,2″:1′,2′]imidazo[4′,′:6,7]-cyclohepta[1,2-d]pyrimidin-11-yl)-3-butyn-2-ol] as the compound, how does the pKi read?
Answer: 4.52 to 6.00

Question: How did the pKi turn out when `Nc1ncc(Cl)c(-c2cn(C[C@@H]3CCCO3)c3ccc(C#CC4(O)CCCC4)cc23)n1` [Example 136, 1-(2-(3-(2-amino-5-chloropyrimidin-4-yl)-1-(((S)-tetrahydrofuran-2-yl)methyl)-1H-indol-5-yl)ethynyl)cyclopentanol] was run?
Answer: > 6.00

Question: `Cn1cnc(C(C)(O)C#Cc2ccc3c(c2)N(c2nc(N)ncc2Cl)CC3(C)C)c1` (stereo not drawn) [Example 45, 4-(1-(2-amino-5-chloro-4-pyrimidinyl)-3,3-dimethyl-2,3-dihydro-1H-indol-6-yl)-2-(1-methyl-1H-imidazol-4-yl)-3-butyn-2-ol] was tested. Which pKi did it give?
Answer: > 6.00

Question: `C[C@@](O)(C#Cc1ccc2[nH]cc(-c3ccncn3)c2c1)c1nccs1` [Example 117, (2R)-4-(3-(pyrimidin-4-yl)-1H-indol-5-yl)-2-(thiazol-2-yl)but-3-yn-2-ol] was tested. Which pKi did it give?
Answer: > 6.00

Question: With `COc1ccc(C#CC(C)(O)c2cc(C)on2)cc1Nc1nc(N)ncc1Cl` (stereo not drawn) [Example 150, 4-(3-(2-Amino-5-chloropyrimidin-4-ylamino)-4-methoxyphenyl)-2-(5-methylisoxazol-3-yl)but-3-yn-2-ol] as the compound, how does the pKi read?
Answer: > 6.00

Question: How did the pKi turn out when `COCCNC(=O)c1[nH]c2ccc(C#CC3(O)CCCC3)cc2c1-c1ccnc(N)n1` [Example 96, 3-(2-aminopyrimidin-4-yl)-5-(2-(1-hydroxycyclopentyl)ethynyl)-N-(2-methoxyethyl)-1H-indole-2-carboxamide] was run?
Answer: > 6.00

Question: How did the pKi turn out when `Cc1cc(C(C)(O)C#Cc2ccc3c(c2)N(c2ccnc(N)n2)CC3)c(C)o1` (stereo not drawn) [Example 279, 4-(1-(2-Amino-4-pyrimidinyl)-2,3-dihydro-1H-indol-6-yl)-2-(2,5-dimethyl-3-furanyl)-3-Butyn-2-ol] was run?
Answer: 4.52 to 6.00

Question: How did the pKi turn out when `COCC1(C)CN(c2nc(N)nc3[nH]cnc23)c2cc(C#CC3(O)CCCC3)ccc21` (stereo not drawn) [Example 69, 1-((1-(2-amino-9H-purin-6-yl)-3-(methoxymethyl)-3-methyl-2,3-dihydro-1H-indol-6-yl)ethynyl)cyclopentanol] was run?
Answer: > 6.00

Question: `Cc1nonc1C(C)(O)C#Cc1ccc2c(c1)N(c1nc(N)ncc1Cl)CC2` (stereo not drawn) [Example 6, 4-(1-(2-amino-5-chloropyrimidin-4-yl)indolin-6-yl)-2-(4-methyl-1,2,5-oxadiazol-3-yl)but-3-yn-2-ol] was tested. Which pKi did it give?
Answer: 4.52 to 6.00

Question: With `CCN(CC)C(=O)Cn1cc(-c2nc(N)ncc2Cl)c2cc(C#CC3(O)CCCC3)ccc21` [Example 129, 2-(3-(2-amino-5-chloropyrimidin-4-yl)-5-(2-(1-hydroxycyclopentyl)ethynyl)-1H-indol-1-yl)-N,N-diethylacetamide] as the compound, how does the pKi read?
Answer: > 6.00

Question: `CC(O)(C#Cc1ccc2c(c1)N(c1ccnc(N)n1)CC2)c1ccccc1` (stereo not drawn) [Example 267, 4-(1-(2-Amino-4-pyrimidinyl)-2,3-dihydro-1H-indol-6-yl)-2-phenyl-3-butyn-2-ol] was tested. Which pKi did it give?
Answer: > 6.00

Question: `CC(O)(C#Cc1ccc2c(c1)N(c1ccnc(N)n1)CC2)c1ccc(Cl)s1` (stereo not drawn) [Example 281, 4-(1-(2-Amino-4-pyrimidinyl)-2,3-dihydro-1H-indol-6-yl)-2-(5-chloro-2-thienyl)-3-butyn-2-ol] was tested. Which pKi did it give?
Answer: > 6.00

Question: `Cc1cc(C(C)(O)C#Cc2ccc3c(c2)N(c2nc(N)ncc2Cl)CC3(C)C)no1` (stereo not drawn) [Example 3, 4-(1-(2-amino-5-chloropyrimidin-4-yl)-3,3-dimethylindolin-6-yl)-2-(5-methylisoxazol-3-yl)but-3-yn-2-ol] was tested. Which pKi did it give?
Answer: > 6.00

Question: How did the pKi turn out when `OC1(C#Cc2ccc3ccn(-c4cc(Nc5ccccc5)ncn4)c3c2)CCCC1` [Example 257, 1-((1-(6-(phenylamino)-4-pyrimidinyl)-1H-indol-6-yl)ethynyl)cyclopentanol] was run?
Answer: 4.52 to 6.00

Question: `CC1(CO)CN(c2nc(N)ncc2Cl)c2cc(C#CC3(O)CCCC3)ccc21` (single isomer, unassigned) [Example 55, 1-(((3R*)-1-(2-amino-5-chloro-4-pyrimidinyl)-3-(hydroxymethyl)-3-methyl-2,3-dihydro-1H-indol-6-yl)ethynyl)cyclopentanol] was tested. Which pKi did it give?
Answer: > 6.00

Question: With `Cc1cnc(C(C)(O)C#Cc2ccc3c(c2)N(c2nc(N)ncc2Cl)CC32CN(C)C2)s1` (stereo not drawn) [Example 301, 4-(1′-(2-Amino-5-chloro-4-pyrimidinyl)-1-methyl-1′,2′-dihydrospiro[azetidine-3,3′-indol]-6′-yl)-2-(5-methyl-1,3-thiazol-2-yl)-3-butyn-2-ol] as the compound, how does the pKi read?
Answer: > 6.00

Question: With `COCCn1cc(-c2nc(N)ncc2Cl)c2cc(C#CC3(O)CCCC3)ccc21` [Example 125, 1-(2-(3-(2-amino-5-chloropyrimidin-4-yl)-1-(2-methoxyethyl)-1H-indol-5-yl)ethynyl)cyclopentanol] as the compound, how does the pKi read?
Answer: > 6.00

Question: How did the pKi turn out when `Nc1ncc(F)c(-c2c[nH]c3ccc(C#CC4(O)CCCC4)cc23)n1` [Example 95, 1-(2-(3-(2-amino-5-fluoropyrimidin-4-yl)-1H-indol-5-yl)ethynyl)cyclopentanol] was run?
Answer: > 6.00

Question: How did the pKi turn out when `CN1CCC2(CC1)CN(c1nc(N)nc3[nH]cnc13)c1cc(C#CC3(O)CCCC3)ccc12` [Example 187, 1-((1-(2-amino-9H-purin-6-yl)-1′-methylspiro[indoline-3,4′-piperidine]-6-yl)ethynyl)cyclopentanol] was run?
Answer: > 6.00

Question: With `CNC(=O)c1cc(N2CCc3ccc(C#CC4(O)CCCC4)cc32)ccn1` [Example 255, 4-(6-((1-hydroxycyclopentyl)ethynyl)-2,3-dihydro-1H-indol-1-yl)-N-methyl-2-pyridinecarboxamide] as the compound, how does the pKi read?
Answer: 4.52 to 6.00

Question: How did the pKi turn out when `CN1Cc2cnc(N)nc2-c2c(n(C)c3ccc(C#CC4(O)CCCC4)cc23)C1=O` [Example 244, 2-Amino-1′-((1-hydroxycyclopentyl)ethynyl)-6,8-dimethyl-5,8-dihydropyrimido[4′,5′:5,6]azepino[3,4-b]indol-7(6H)-one] was run?
Answer: > 6.00

Question: How did the pKi turn out when `CC1(C)CN(c2ccncc2)c2cc(C#C[C@@](C)(O)c3nccs3)ccc21` [Example 306, (2R)-4-(3,3-dimethyl-1-(4-pyridinyl)-2,3-dihydro-1H-indol-6-yl)-2-(1,3-thiazol-2-yl)-3-Butyn-2-ol] was run?
Answer: > 6.00
